According to patent US20090318470A1, “1-SUBSTITUTED-3-(NAPHTHALEN-1-YLSULFONYL)-5-(PIPERAZIN-1-YL)-1H-INDAZOLE COMPOUNDS AS 5-HYDROXYTRYPTAMINE-6 LIGANDS” (Wyeth, priority 2008, published 2009):
Structures can show the parent of a compound that is named as a salt. Where two headings read alike, the source gives them in different places.

Assays:
[1] = target: T1, serotonin 5HT6 receptor subtype (Homo sapiens, UniProt P50406); experiment: 5HT6 Binding Affinity ([3H]-LSD SPA binding)
T1 construct: host or cells: CHO-Dukx-A2 cells, clone 50-7

[2] = CNS penetration following a single intraperitoneal dose; type: in vivo, Male Long Evans Rats; details: for Kp: male, Long Evans, rat, brain and plasma, read-out: Brain/plasma ratio
[3] = Microsomal stability, rat; type: in vitro ADME; details: Rat microsomes
Method: (§1) Compounds listed in Table 5, column A, are prepared as described in U.S. Pat. No. 7,238,696. Each of the compounds in Table 5, columns A and B, were screen according to the microsomal stability procedure described in Di et al., Journal of Biomolecular Screening 2003:453-462.

[4] = Pharmacokinetics following a single IV bolus; parameters: species or system Male Long Evans Rats; details: male, Long Evans, rat, in vivo; single IV bolus at 2 mg/kg, n = 3
Method: (§2) Pharmacokinetics and CNS Penetration of Compounds were Determined Using HPLC Analysis of the Prepared Samples and Presented in Tables 2, 3, & 4 Below
(§3) Male Long Evans Rats were dosed with the candidate drug substance at the dosage amount and route listed above using standard pharmacokinetic procedures (Applied Biopharmaceutics & Pharmacokinetics, Shargel, L and Yu, A, 4th Ed 1999, McGraw-Hill, N.Y.; Welling, P G, Pharmacokinetics, Process and Mathematics, ACS Monograph 185, American Chemical Society 1986, Washington, D.C.; Lee, P and Amidon, G L, Pharmacokinetic Analysis-A Practical Approach, Technomic Pub Co Lancaster Pa. 1996)).

[5] = Microsomal stability, human; type: in vitro ADME; details: Human microsomes
Method: as §1

[6] = Pharmacokinetics following a single oral dose; parameters: species or system Male Long Evans Rats; details: male, Long Evans, rat, in vivo; for bioavailability: po, 10 mg/kg, Table 1, obtained according to Example 10; for AUC(0-inf): single oral dose of 10 mg/kg
Method: as §2, §3

[7] = CHO-Dukx-A2 cells expressing 5HT6, 3 nM [3H]-LSD, Cheng-Prusoff, read-out: 5HT6 Ki
[8] = intraperitoneal, 10 mg/mL, Table 1, obtained according to Example 10
[9] = ip, Table 4, single intraperitoneal dose of 10 mg/kg, n = 3

T1 sequence (P50406 whole entry): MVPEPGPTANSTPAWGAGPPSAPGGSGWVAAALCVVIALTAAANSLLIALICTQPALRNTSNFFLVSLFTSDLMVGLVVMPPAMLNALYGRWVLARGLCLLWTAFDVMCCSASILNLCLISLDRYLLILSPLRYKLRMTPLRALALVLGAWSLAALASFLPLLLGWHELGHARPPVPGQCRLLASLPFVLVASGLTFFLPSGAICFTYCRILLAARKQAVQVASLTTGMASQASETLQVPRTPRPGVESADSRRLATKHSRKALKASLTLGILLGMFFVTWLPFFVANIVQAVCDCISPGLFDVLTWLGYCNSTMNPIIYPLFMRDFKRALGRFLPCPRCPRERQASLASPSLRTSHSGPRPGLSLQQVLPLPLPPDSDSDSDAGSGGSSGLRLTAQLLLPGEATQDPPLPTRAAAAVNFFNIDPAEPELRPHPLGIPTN

Row | Structure (SMILES) | Ki [1, 7] [nM] | Kp [2, 8] | Microsomal Stability [3] [min] | AUC(0-inf) [4] [ng·h/mL] | Microsomal Stability [5] [min] | Kp [2, 9] | bioavailability [6] [%] | AUC(0-inf) [6] [ng·h/mL] | Ki [1] [nM] | AUClast ([2]; matrix brain, single intraperitoneal dose of 10 mg/kg, n = 3)
1 | O=S(=O)(c1cccc2ccccc12)c1nn(Cc2cccc(Cl)c2)c2ccc(N3CCNCC3)cc12 [Example 3, 1-(3-Chlorobenzyl)-5-(piperazin-1-yl)-3-(naphthalen-1-ylsulfonyl)-1H-indazole dihydrochloride] | 23.5 | – | – | – | – | – | – | – | – | –
2 | CCCn1nc(S(=O)(=O)c2cccc3ccccc23)c2cc(N3CCNCC3)ccc21 [Example 7, 3-(Naphthalen-1-ylsulfonyl)-5-(piperazin-1-yl)-1-propyl-1H-indazole dihydrochloride] | 2.2 | – | – | – | – | – | – | – | – | –
3 | CCn1nc(S(=O)(=O)c2cccc3ccccc23)c2cc(N3CCNCC3)ccc21 [Example 6, 1-Ethyl-3-(naphthalen-1-ylsulfonyl)-5-(piperazin-1-yl)-1H-indazole dihydrochloride] | 1.9 | 0.45 | – | – | – | – | – | – | – | –
4 | Cn1nc(S(=O)(=O)c2cccc3ccccc23)c2cc(N3CCNCC3)ccc21 [Example 5, 1-Methyl-3-(naphthalen-1-ylsulfonyl)-5-(piperazin-1-yl)-1H-indazole dihydrochloride] | 1.6 | 0.3 | – | – | – | – | – | – | – | –
5 | CC(C)Cn1nc(S(=O)(=O)c2cccc3ccccc23)c2cc(N3CCNCC3)ccc21 [Example 1, 1-Isobutyl-3-(naphthalen-1-ylsulfonyl)-5-(piperazin-1-yl)-1H-indazole dihydrochloride] | 4.6 | 0.81 | 24 | 378 | >30 | 0.81 | 22 | 413 | – | –
6 | CC(=O)n1nc(S(=O)(=O)c2cccc3ccccc23)c2cc(N3CCNCC3)ccc21 [Example 4, 1-(3-(Naphthalen-1-ylsulfonyl)-5-(piperazin-1-yl)-1H-indazol-1-yl)ethanone hydrochloride] | 1 | – | – | – | – | – | – | – | – | –
7 | CC(C)n1nc(S(=O)(=O)c2cccc3ccccc23)c2cc(N3CCNCC3)ccc21 [Example 8, 1-Isopropyl-3-(naphthalen-1-ylsulfonyl)-5-(piperazin-1-yl)-1H-indazole dihydrochloride] | 3 | 0.36 | >30 | – | >30 | – | – | – | – | –
8 | O=S(=O)(c1cccc2ccccc12)c1nn(Cc2ccccc2)c2ccc(N3CCNCC3)cc12 [Example 2, 1-Benzyl-3-(naphthalene-1-sulfonyl)-5-piperazin-1-yl-1H-indazole dihydrochloride] | 7.5 | 0.26 | 25 | 843 | 13 | 0.26 | 50 | 2100 | – | –
9 | O=S(=O)(c1cccc2ccccc12)c1n[nH]c2ccc(N3CCNCC3)cc12 [Compound C, 3-(naphthalen-1-ylsulfonyl)-5-(piperazin-1-yl)-1H-indazole dihydrochloride, reference compound] | – | < 0.01 | – | 390 | – | < 0.01 | 3 | 119 | 0.8 | Not detectable
